The values that follow are results of earlier work, collected in patent US8378072B2, “Methods for designing and synthesizing directed sequence polymer compositions via the directed expansion of epitope permeability” (Declion Pharmaceuticals, Inc., priority 2006, dated 2013).

For data set [1] the following is noted: compared with COP-1.
For data set [2] the following is noted: YFAK input ratio of 1:1:1:1 compared to input ratio of 1:1:10:6; Rasmussen et al.
For data set [3] the following is noted: limited human trials; Kim et al. Clinical Immunology 2002.
The conditions of data set [4]: Raz et al., Lancet 2001.

On to “YFAK: random sequence polymer consisting of the amino acids Y, F, A, and K”, for which the “efficacy in EAE” value in data set [1] was “better efficacy”. In addition, the “eliciting a recall response” value in data set [2] is on record as “not effective”.

For “AKPVVHLFANIVTPRTP [altered peptide ligand (APL) made from MBP83-99, placed into limited human trials]”, the “clinical efficacy by evaluation using MRI” value in data set [3] was “clinically ineffective”.

VLGGGVALLRVIPALDSLTPANED [p277]: the “activity in the context of Type I diabetes” value in data set [4] was “apparent activity”.
